# Reference: US20260132132A1, “3A,4,5,6-TETRAHYDRO-1 H-PYRAZOLO[3,4-C]PYRIDIN-7(7AH)-ONE DERIVATIVES AS FACTOR XIIA INHIBITORS” (KALVISTA PHARMACEUTICALS LIMITED, priority 2022, published 2026)
# Target: T1, Human Factor XIIa (hFXIIa) (Homo sapiens, UniProt P00748)
# T1 construct: purchased Enzyme Research Laboratories
# T1 sequence (P00748 373-615 limits assumed): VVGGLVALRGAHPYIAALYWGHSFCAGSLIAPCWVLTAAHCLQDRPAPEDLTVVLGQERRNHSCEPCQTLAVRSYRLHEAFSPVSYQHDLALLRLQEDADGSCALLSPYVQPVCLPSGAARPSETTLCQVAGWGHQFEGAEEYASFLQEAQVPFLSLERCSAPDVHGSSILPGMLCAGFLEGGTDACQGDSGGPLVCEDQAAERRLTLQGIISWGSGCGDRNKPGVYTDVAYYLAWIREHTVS
# T1 sequence (P00748 20-372 partner limits assumed): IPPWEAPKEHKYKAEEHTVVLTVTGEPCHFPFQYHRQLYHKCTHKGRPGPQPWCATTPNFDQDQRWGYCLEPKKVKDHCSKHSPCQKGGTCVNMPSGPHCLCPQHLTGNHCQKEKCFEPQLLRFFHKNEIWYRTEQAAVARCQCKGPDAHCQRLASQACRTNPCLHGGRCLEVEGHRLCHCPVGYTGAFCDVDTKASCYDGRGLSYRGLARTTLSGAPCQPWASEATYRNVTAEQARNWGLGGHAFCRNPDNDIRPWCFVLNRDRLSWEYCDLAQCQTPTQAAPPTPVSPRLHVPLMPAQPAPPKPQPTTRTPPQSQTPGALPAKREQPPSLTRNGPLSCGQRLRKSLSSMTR
# Assay: Determination of Human Factor XIIa (hFXIIa) inhibition, fluorogenic substrate IC50 assay
# Assay type: biochemical
# Settings: fluorogenic substrate H-DPro-Phe-Arg-AFC at Km, 25° C., read-out: Human FXIIa IC50
# Method: Determination of Human Factor XIIa (hFXIIa) inhibition
# The Km for the cleavage of the substrate by hFXIIa was determined by standard transformation of the Michaelis-Menten equation, with subsequent inhibition assays performed at substrate Km concentration.
row,SMILES,IC50 [nM]
1,"CN1CCc2ccc(N3CCc4c(C(=O)NCC56CCC(CO)(C5)O6)nn(-c5cccc(Cl)c5)c4C3=O)cc2C1=O (stereo not shown) [Example 1280, 1-(3-chlorophenyl)-N-((4-(hydroxymethyl)-5-oxabicyclo[2.1.1]hexan-1-yl)methyl)-6-(2-methyl-1-oxo-1,2,3,4-tetrahydroisoquinolin-7-yl)-7-oxo-4,5,6,7-tetrahydro-1H-pyrazolo[3,4-c]pyridine-3-carboxamide]",300 to 1000
2,"CC(=O)N(C)c1cccc(N2CCc3c(C(=O)NCC4CC4)nn(-c4cccc(Cl)c4)c3C2=O)c1 [Example 1269, 1-(3-chlorophenyl)-N-(cyclopropylmethyl)-6-(3-(N-methylacetamido)phenyl)-7-oxo-4,5,6,7-tetrahydro-1H-pyrazolo[3,4-c]pyridine-3-carboxamide]",10000 to 40000
3,"Cc1nc2c(C(=O)NCC3CC3)nn(-c3cccc(Cl)c3F)c2c(=O)n1-c1ccc2c(c1)C(=O)N(C)CCO2 [Example 3023, 1-(3-chloro-2-fluorophenyl)-N-(cyclopropylmethyl)-5-methyl-6-(4-methyl-5-oxo-2,3,4,5-tetrahydrobenzo[f][1,4]oxazepin-7-yl)-7-oxo-6,7-dihydro-1H-pyrazolo[4,3-d]pyrimidine-3-carboxamide]",300 to 1000
4,"CCN1CCc2ccc(N3CCc4c(C(=O)N[C@@H]5CCOC5)nn(-c5cccc(Cl)c5)c4C3=O)cc2C1 [Example 1091, (R)-1-(3-chlorophenyl)-6-(2-ethyl-1,2,3,4-tetrahydroisoquinolin-7-yl)-7-oxo-N-(tetrahydrofuran-3-yl)-4,5,6,7-tetrahydro-1H-pyrazolo[3,4-c]pyridine-3-carboxamide]",100 to 300
5,"CN1CCC(CN2CCc3c(C(=O)NCc4ccccc4)nn(-c4cccc(Cl)c4)c3C2=O)CC1 [Example 1016, N-Benzyl-1-(3-chlorophenyl)-6-((1-methylpiperidin-4-yl)methyl)-7-oxo-4,5,6,7-tetrahydro-1H-pyrazolo[3,4-c]pyridine-3-carboxamide]",10000 to 40000
6,"Cc1cc(CNC(=O)c2nn(-c3cccc(Cl)c3)c3c2CCN(c2ccc4c(c2)C(=O)N(CCO)CCO4)C3=O)nn1C [Example 1288, 1-(3-Chlorophenyl)-N-[(1,5-dimethylpyrazol-3-yl)methyl]-6-[4-(2-hydroxyethyl)-5-oxo-2,3-dihydro-1,4-benzoxazepin-7-yl]-7-oxo-4,5-dihydropyrazolo[3,4-c]pyridine-3-carboxamide]",10 to 100
7,"CN1CCc2ccc(N3CCc4c(C(=O)NC5CC6CCC5O6)nn(-c5cccc(Cl)c5)c4C3=O)cc2C1 (stereo not shown) [Example 1075, N-(7-oxabicyclo[2.2.1]heptan-2-yl)-1-(3-chlorophenyl)-6-(2-methyl-1,2,3,4-tetrahydroisoquinolin-7-yl)-7-oxo-4,5,6,7-tetrahydro-1H-pyrazolo[3,4-c]pyridine-3-carboxamide]",100 to 300
8,"Cc1cc(CNC(=O)c2nn(-c3cccc(Cl)c3)c3c2CCN(c2cccc(CN4CCCCC4)c2)C3=O)[nH]n1 [Example 1168, 1-(3-chlorophenyl)-N-((3-methyl-1H-pyrazol-5-yl)methyl)-7-oxo-6-(3-(piperidin-1-ylmethyl)phenyl)-4,5,6,7-tetrahydro-1H-pyrazolo[3,4-c]pyridine-3-carboxamide]",10 to 100
9,"O=C(N[C@@H]1CCOC1)c1nn(-c2cccc(Cl)c2)c2c1CCN(c1ccc3c(c1)CN(CCO)CC3)C2=O [Example 1108, (R)-1-(3-chlorophenyl)-6-(2-(2-hydroxyethyl)-1,2,3,4-tetrahydroisoquinolin-7-yl)-7-oxo-N-(tetrahydrofuran-3-yl)-4,5,6,7-tetrahydro-1H-pyrazolo[3,4-c]pyridine-3-carboxamide]",100 to 300
10,"CN1CCc2ccc(N3CCc4c(C(=O)NCC5(CO)CCC5)nn(-c5cccc(Cl)c5)c4C3=O)cc2C1 [Example 1049, 1-(3-chlorophenyl)-N-((1-(hydroxymethyl)cyclobutyl)methyl)-6-(2-methyl-1,2,3,4-tetrahydroisoquinolin-7-yl)-7-oxo-4,5,6,7-tetrahydro-1H-pyrazolo[3,4-c]pyridine-3-carboxamide]",100 to 300
11,"CCN1CCc2ccc(N3CCc4c(C(=O)NCc5cc(C)n(C)n5)nn(-c5cccc(Cl)c5)c4C3=O)cc2C1=O [Example 1219, 1-(3-chlorophenyl)-N-((1,5-dimethyl-1H-pyrazol-3-yl)methyl)-6-(2-ethyl-1-oxo-1,2,3,4-tetrahydroisoquinolin-7-yl)-7-oxo-4,5,6,7-tetrahydro-1H-pyrazolo[3,4-c]pyridine-3-carboxamide]",10 to 100
12,"CN1CCc2ccc(N3CCc4c(C(=O)NC5COCC5CO)nn(-c5cccc(Cl)c5)c4C3=O)cc2C1=O (stereo not shown) [Example 1251, 1-(3-chlorophenyl)-N-(4-(hydroxymethyl)tetrahydrofuran-3-yl)-6-(2-methyl-1-oxo-1,2,3,4-tetrahydroisoquinolin-7-yl)-7-oxo-4,5,6,7-tetrahydro-1H-pyrazolo[3,4-c]pyridine-3-carboxamide]",300 to 1000
13,"O=C(NCC1CC1)c1nn(-c2cccc(Cl)c2)c2c1CCN(c1ccc3c(c1)CN(CCCF)CC3)C2=O [Example 1080, 1-(3-chlorophenyl)-N-(cyclopropylmethyl)-6-(2-(3-fluoropropyl)-1,2,3,4-tetrahydroisoquinolin-7-yl)-7-oxo-4,5,6,7-tetrahydro-1H-pyrazolo[3,4-c]pyridine-3-carboxamide]",100 to 300
14,"Cc1cc(CNC(=O)c2nn(-c3cccc(Cl)c3)c3c2CCN(c2ccc4c(c2)CN(CCO)CC4)C3=O)nn1C [Example 1166, 1-(3-chlorophenyl)-N-((1,5-dimethyl-1H-pyrazol-3-yl)methyl)-6-(2-(2-hydroxyethyl)-1,2,3,4-tetrahydroisoquinolin-7-yl)-7-oxo-4,5,6,7-tetrahydro-1H-pyrazolo[3,4-c]pyridine-3-carboxamide]",10 to 100
15,"CN1CCc2ccc(N3CCc4c(C(=O)NC5CCNC(=O)C5)nn(-c5cccc(Cl)c5)c4C3=O)cc2C1 (stereo not shown) [Example 1057, 1-(3-chlorophenyl)-6-(2-methyl-1,2,3,4-tetrahydroisoquinolin-7-yl)-7-oxo-N-(2-oxopiperidin-4-yl)-4,5,6,7-tetrahydro-1H-pyrazolo[3,4-c]pyridine-3-carboxamide]",300 to 1000
16,"O=C(NCC1CC1)c1nn(-c2cccc(Cl)c2)c2c1CCN(c1cccc(CN3CC4CC4C3)c1)C2=O (stereo not shown) [Example 1073, 6-(3-((3-azabicyclo[3.1.0]hexan-3-yl)methyl)phenyl)-1-(3-chlorophenyl)-N-(cyclopropylmethyl)-7-oxo-4,5,6,7-tetrahydro-1H-pyrazolo[3,4-c]pyridine-3-carboxamide]",1000 to 3000
17,"CN1CCc2ccc(N3CCc4c(C(=O)NC[C@H]5C[C@H](O)C5)nn(-c5cccc(Cl)c5)c4C3=O)cc2C1=O [Example 1274, 1-(3-chlorophenyl)-N-(((1r,3r)-3-hydroxycyclobutyl)methyl)-6-(2-methyl-1-oxo-1,2,3,4-tetrahydroisoquinolin-7-yl)-7-oxo-4,5,6,7-tetrahydro-1H-pyrazolo[3,4-c]pyridine-3-carboxamide]",300 to 1000
18,"Cc1nc2c(C#N)nn(-c3cccc(Cl)c3)c2c(=O)n1-c1ccc2c(c1)CN(C)CC2 [Example 3002, 1-(3-Chlorophenyl)-5-methyl-6-(2-methyl-1,2,3,4-tetrahydroisoquinolin-7-yl)-7-oxo-6,7-dihydro-1H-pyrazolo[4,3-d]pyrimidine-3-carbonitrile]",100 to 300
19,"O=C(NCc1cnoc1)c1nn(-c2cccc(Cl)c2)c2c1CCN(c1ccc3c(c1)CN(CCO)CC3)C2=O [Example 1167, 1-(3-chlorophenyl)-6-(2-(2-hydroxyethyl)-1,2,3,4-tetrahydroisoquinolin-7-yl)-N-(isoxazol-4-ylmethyl)-7-oxo-4,5,6,7-tetrahydro-1H-pyrazolo[3,4-c]pyridine-3-carboxamide]",100 to 300
20,"NCCN1CCc2ccc(N3CCc4c(C(=O)NCC5CC5)nn(-c5cccc(Cl)c5)c4C3=O)cc2C1 [Example 1098, 6-(2-(2-aminoethyl)-1,2,3,4-tetrahydroisoquinolin-7-yl)-1-(3-chlorophenyl)-N-(cyclopropylmethyl)-7-oxo-4,5,6,7-tetrahydro-1H-pyrazolo[3,4-c]pyridine-3-carboxamide]",100 to 300
21,"C[C@@H](O)CN1CCc2ccc(N3CCc4c(C(=O)NCC5CC5)nn(-c5cccc(Cl)c5)c4C3=O)cc2C1 [Example 1101, (R)-1-(3-chlorophenyl)-N-(cyclopropylmethyl)-6-(2-(2-hydroxypropyl)-1,2,3,4-tetrahydroisoquinolin-7-yl)-7-oxo-4,5,6,7-tetrahydro-1H-pyrazolo[3,4-c]pyridine-3-carboxamide]",300 to 1000
22,"Cn1nccc1CNC(=O)c1nn(-c2cccc(Cl)c2)c2c1CCN(c1ccc3c(c1)CN(CCO)CC3)C2=O [Example 1088, 1-(3-chlorophenyl)-6-(2-(2-hydroxyethyl)-1,2,3,4-tetrahydroisoquinolin-7-yl)-N-((1-methyl-1H-pyrazol-5-yl)methyl)-7-oxo-4,5,6,7-tetrahydro-1H-pyrazolo[3,4-c]pyridine-3-carboxamide]",100 to 300
